Data: article PMC8026479 (Cancer Chemotherapy and Pharmacology, 2021)
Where two headings read alike, the source gives them in different places.

Test: Study G1T28-03 Part 1 plasma PK (with topotecan)
Assay type: in vivo, human
Conditions: for Cmax / T1/2 / AUC(0-inf) / clearance / Vd / half-life: geometric mean; for Vd: read-out: Vz; for Tmax: range
Text: G1T28-03 (NCT02514447) was a multicentre Phase Ib/IIa study in patients with previously treated ES-SCLC [14]. […] Part 1 was a Phase Ib, open-label, dose-finding portion. Part 2 was a Phase IIa, randomized, double-blind, placebo-controlled portion. […] In Part 1 of the study, blood samples for PK analysis were collected at prespecified time points on Cycle 1 Day 1 and Cycle 1 Day 4 for all patients.

[1] = ES-SCLC + topotecan, 280 mg/m2, Cycle 1 Day 1 (n = 7)
[2] = human, plasma, 200 mg/m2, ES-SCLC + topotecan, 200 mg/m2, Cycle 1 Day 4 (n = 9)
[3] = human, plasma, 280 mg/m2, ES-SCLC + topotecan, 280 mg/m2, Cycle 1 Day 1 (n = 7)
[4] = human, plasma, 280 mg/m2, ES-SCLC + topotecan, 280 mg/m2, Cycle 1 Day 4 (n = 7)
[5] = human, plasma, ES-SCLC + topotecan, 200 mg/m2, Cycle 1 Day 1 (n = 10)
[6] = human, plasma, ES-SCLC + topotecan, 240 mg/m2, Cycle 1 Day 1 (n = 14)
[7] = human, plasma, ES-SCLC + topotecan, 240 mg/m2, Cycle 1 Day 4 (n = 15)

Question: For `CN1CCN(c2ccc(Nc3ncc4cc5n(c4n3)C3(CCCCC3)CNC5=O)nc2)CC1` [trilaciclib], which Cmax (ES-SCLC + topotecan, 200 mg/m2, Cycle 1 Day 4 (n = 9)) is on record?
Answer: 1060 ng/mL

Question: What about the T1/2 (ES-SCLC + topotecan, 240 mg/m2, Cycle 1 Day 1 (n = 14)) of the same compound?
Answer: 407 min

Question: And the Cmax [1]?
Answer: 1110 ng/mL

Question: What about the T1/2 [1] of the same compound?
Answer: 443 min

Question: What about the “accumulation on repeated daily dosing” value (G1T28-03 Part 1, 280 mg/m2, Day 1 vs Day 4, not observed at lower dose levels) of the same compound?
Answer: resulted in drug accumulation

Question: And the AUC(0-inf) (human, plasma, 200 mg/m2, ES-SCLC + topotecan, 200 mg/m2, Cycle 1 Day 1 (n = 10), read-out: AUC0-inf)?
Answer: 2410 ng·h/mL

Question: What about the clearance [2] of the same compound?
Answer: 2850 mL/min

Question: What about the Vd [2] of the same compound?
Answer: 2120 L

Question: And the Tmax [2]?
Answer: 22.8 to 34.8 min

Question: And the AUC(0-inf) (human, plasma, 240 mg/m2, ES-SCLC + topotecan, 240 mg/m2, Cycle 1 Day 1 (n = 14), read-out: AUC0-inf)?
Answer: 2910 ng·h/mL

Question: And the Tmax (human, plasma, 240 mg/m2, ES-SCLC + topotecan, 240 mg/m2, Cycle 1 Day 1 (n = 14))?
Answer: 24 to 42 min

Question: What about the AUC(0-inf) (human, plasma, 240 mg/m2, ES-SCLC + topotecan, 240 mg/m2, Cycle 1 Day 4 (n = 15), read-out: AUCtau (AUC0-inf, footnote a)) of the same compound?
Answer: 2880 ng·h/mL

Question: What about the Vd (human, plasma, 240 mg/m2, ES-SCLC + topotecan, 240 mg/m2, Cycle 1 Day 4 (n = 15)) of the same compound?
Answer: 1730 L

Question: And the clearance [3]?
Answer: 2680 mL/min

Question: And the AUC(0-inf) (human, plasma, 280 mg/m2, ES-SCLC + topotecan, 280 mg/m2, Cycle 1 Day 1 (n = 7), read-out: AUC0-inf)?
Answer: 3490 ng·h/mL

Question: What about the Vd [3] of the same compound?
Answer: 1720 L

Question: And the Tmax [3]?
Answer: 25.2 to 37.2 min

Question: And the clearance [4]?
Answer: 2080 mL/min

Question: And the AUC(0-inf) (human, plasma, 280 mg/m2, ES-SCLC + topotecan, 280 mg/m2, Cycle 1 Day 4 (n = 7), read-out: AUCtau (AUC0-inf, footnote a))?
Answer: 4520 ng·h/mL

Question: And the Vd [4]?
Answer: 1530 L

Question: What about the Tmax [4] of the same compound?
Answer: 25.2 to 33 min

Question: What about the clearance [5] of the same compound?
Answer: 2750 mL/min

Question: And the half-life [5]?
Answer: 415 min

Question: What about the Vd [5] of the same compound?
Answer: 1650 L

Question: What about the Tmax [5] of the same compound?
Answer: 25.2 to 40.2 min

Question: What about the clearance [6] of the same compound?
Answer: 2420 mL/min

Question: What about the Cmax (human, plasma, ES-SCLC + topotecan, 240 mg/m2, Cycle 1 Day 1 (n = 14), read-out: Cmax) of the same compound?
Answer: 1270 ng/mL

Question: What about the Vd [6] of the same compound?
Answer: 1430 L

Question: And the Tmax [7]?
Answer: 22.8 to 90 min

Question: What about the half-life (human, plasma, ES-SCLC + topotecan, 200 mg/m2, Cycle 1 Day 4 (n = 9)) of the same compound?
Answer: 514 min

Question: And the clearance [7]?
Answer: 2470 mL/min

Question: And the Cmax (human, plasma, ES-SCLC + topotecan, 240 mg/m2, Cycle 1 Day 4 (n = 15), read-out: Cmax)?
Answer: 1220 ng/mL

Question: What about the half-life (human, plasma, ES-SCLC + topotecan, 280 mg/m2, Cycle 1 Day 4 (n = 7)) of the same compound?
Answer: 512 min

Question: And the Cmax (human, plasma, ES-SCLC + topotecan, 280 mg/m2, Cycle 1 Day 4 (n = 7), read-out: Cmax)?
Answer: 2220 ng/mL
